Experimental data reported in US8192962B2, “Processes for detecting toxic substances” (Daikin Industries, Ltd., priority 2001, dated 2012).

System: Transport facilitation protein genes
Assay: DNA chip mRNA expression in yeast, transport facilitation protein genes (Table 5)
Format: cell-based, Saccharomyces cerevisiae S288C
In short: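 S. cerevisiae S288C grown at 25° C in YPD were exposed in log phase for two hours to one toxic chemical at a growth-inhibiting, non-lethal concentration; untreated cells served as control. Poly(A) mRNA was reverse-transcribed with Cy3/Cy5-dUTP and hybridized to a whole-genome yeast DNA chip at 65° C for over 12 hours; values are fluorescence ratios versus untreated.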

## S=C([S-])NCCNC(=S)[S-].[Zn+2] [(11), zinc N,N′-ethylenebis(dithiocarbamate)]
Yeast gene YHL035C
  The level of expressed mRNA in the presence of chemical substance/The level of expressed mRNA in the absence of chemical substance: 0.9
Yeast gene YHL036W
  The level of expressed mRNA in the presence of chemical substance/The level of expressed mRNA in the absence of chemical substance: 2.3
Yeast gene YHL040C
  The level of expressed mRNA in the presence of chemical substance/The level of expressed mRNA in the absence of chemical substance: 1.7
Yeast gene YHL047C
  The level of expressed mRNA in the presence of chemical substance/The level of expressed mRNA in the absence of chemical substance: 1.0
Yeast gene YHR026W
  The level of expressed mRNA in the presence of chemical substance/The level of expressed mRNA in the absence of chemical substance: 1.4
Yeast gene YHR048W
  The level of expressed mRNA in the presence of chemical substance/The level of expressed mRNA in the absence of chemical substance: 2.0
Yeast gene YHR092C
  The level of expressed mRNA in the presence of chemical substance/The level of expressed mRNA in the absence of chemical substance: 1.5
Yeast gene YHR094C
  The level of expressed mRNA in the presence of chemical substance/The level of expressed mRNA in the absence of chemical substance: 0.6
Yeast gene YHR175W
  The level of expressed mRNA in the presence of chemical substance/The level of expressed mRNA in the absence of chemical substance: 1.1
Yeast gene YIL006W
  The level of expressed mRNA in the presence of chemical substance/The level of expressed mRNA in the absence of chemical substance: 1.0
Yeast gene YIL022W
  The level of expressed mRNA in the presence of chemical substance/The level of expressed mRNA in the absence of chemical substance: 1.0
Yeast gene YIL056W
  The level of expressed mRNA in the presence of chemical substance/The level of expressed mRNA in the absence of chemical substance: 0.7
Yeast gene YIL088C
  The level of expressed mRNA in the presence of chemical substance/The level of expressed mRNA in the absence of chemical substance: 1.8
Yeast gene YJL034W
  The level of expressed mRNA in the presence of chemical substance/The level of expressed mRNA in the absence of chemical substance: 1.3
Yeast gene YJL212C
  The level of expressed mRNA in the presence of chemical substance/The level of expressed mRNA in the absence of chemical substance: 0.9
Yeast gene YJL219W
  The level of expressed mRNA in the presence of chemical substance/The level of expressed mRNA in the absence of chemical substance: 2.3
Yeast gene YJR077C
  The level of expressed mRNA in the presence of chemical substance/The level of expressed mRNA in the absence of chemical substance: 1.6
Yeast gene YJR106W
  The level of expressed mRNA in the presence of chemical substance/The level of expressed mRNA in the absence of chemical substance: 1.6
Yeast gene YJR121W
  The level of expressed mRNA in the presence of chemical substance/The level of expressed mRNA in the absence of chemical substance: 0.9
Yeast gene YKL016C
  The level of expressed mRNA in the presence of chemical substance/The level of expressed mRNA in the absence of chemical substance: 1.3
Yeast gene YKL146W
  The level of expressed mRNA in the presence of chemical substance/The level of expressed mRNA in the absence of chemical substance: 0.9
Yeast gene YKR039W
  The level of expressed mRNA in the presence of chemical substance/The level of expressed mRNA in the absence of chemical substance: 1.9
Yeast gene YKR067W
  The level of expressed mRNA in the presence of chemical substance/The level of expressed mRNA in the absence of chemical substance: 1.3
Yeast gene YLL028W
  The level of expressed mRNA in the presence of chemical substance/The level of expressed mRNA in the absence of chemical substance: 0.7
Yeast gene YLL055W
  The level of expressed mRNA in the presence of chemical substance/The level of expressed mRNA in the absence of chemical substance: 3.6
Yeast gene YLR081W
  The level of expressed mRNA in the presence of chemical substance/The level of expressed mRNA in the absence of chemical substance: 2.6
Yeast gene YLR295C
  The level of expressed mRNA in the presence of chemical substance/The level of expressed mRNA in the absence of chemical substance: 1.3
Yeast gene YLR348C
  The level of expressed mRNA in the presence of chemical substance/The level of expressed mRNA in the absence of chemical substance: 1.3
Yeast gene YLR378C
  The level of expressed mRNA in the presence of chemical substance/The level of expressed mRNA in the absence of chemical substance: 1.0
Yeast gene YMR011W
  The level of expressed mRNA in the presence of chemical substance/The level of expressed mRNA in the absence of chemical substance: 1.5
Yeast gene YMR162C
  The level of expressed mRNA in the presence of chemical substance/The level of expressed mRNA in the absence of chemical substance: 1.7
Yeast gene YMR203W
  The level of expressed mRNA in the presence of chemical substance/The level of expressed mRNA in the absence of chemical substance: 2.3
Yeast gene YNL055C
  The level of expressed mRNA in the presence of chemical substance/The level of expressed mRNA in the absence of chemical substance: 1.9
Yeast gene YNL259C
  The level of expressed mRNA in the presence of chemical substance/The level of expressed mRNA in the absence of chemical substance: 1.6
Yeast gene YNR072W
  The level of expressed mRNA in the presence of chemical substance/The level of expressed mRNA in the absence of chemical substance: 1.4
Yeast gene YOL119C
  The level of expressed mRNA in the presence of chemical substance/The level of expressed mRNA in the absence of chemical substance: 3.4
Yeast gene YOL156W
  The level of expressed mRNA in the presence of chemical substance/The level of expressed mRNA in the absence of chemical substance: 1.1
Yeast gene YOL158C
  The level of expressed mRNA in the presence of chemical substance/The level of expressed mRNA in the absence of chemical substance: 0.7
Yeast gene YOL163W
  The level of expressed mRNA in the presence of chemical substance/The level of expressed mRNA in the absence of chemical substance: 1.6
Yeast gene YOR035C
  The level of expressed mRNA in the presence of chemical substance/The level of expressed mRNA in the absence of chemical substance: 1.0
Yeast gene YOR130C
  The level of expressed mRNA in the presence of chemical substance/The level of expressed mRNA in the absence of chemical substance: 0.6
Yeast gene YOR153W
  The level of expressed mRNA in the presence of chemical substance/The level of expressed mRNA in the absence of chemical substance: 1.0
Yeast gene YOR270C
  The level of expressed mRNA in the presence of chemical substance/The level of expressed mRNA in the absence of chemical substance: 1.5
Yeast gene YOR273C
  The level of expressed mRNA in the presence of chemical substance/The level of expressed mRNA in the absence of chemical substance: 1.5
Yeast gene YOR316C
  The level of expressed mRNA in the presence of chemical substance/The level of expressed mRNA in the absence of chemical substance: 2.4
Yeast gene YOR328W
  The level of expressed mRNA in the presence of chemical substance/The level of expressed mRNA in the absence of chemical substance: 1.1
Yeast gene YOR332W
  The level of expressed mRNA in the presence of chemical substance/The level of expressed mRNA in the absence of chemical substance: 1.5
Yeast gene YOR348C
  The level of expressed mRNA in the presence of chemical substance/The level of expressed mRNA in the absence of chemical substance: 1.1
Yeast gene YPL036W
  The level of expressed mRNA in the presence of chemical substance/The level of expressed mRNA in the absence of chemical substance: 0.8
Yeast gene YPL134C
  The level of expressed mRNA in the presence of chemical substance/The level of expressed mRNA in the absence of chemical substance: 1.7
Yeast gene YPL265W
  The level of expressed mRNA in the presence of chemical substance/The level of expressed mRNA in the absence of chemical substance: 1.8
Yeast gene YPL271W
  The level of expressed mRNA in the presence of chemical substance/The level of expressed mRNA in the absence of chemical substance: 1.7
Yeast gene YPR124W
  The level of expressed mRNA in the presence of chemical substance/The level of expressed mRNA in the absence of chemical substance: 2.0
Yeast gene YPR192W
  The level of expressed mRNA in the presence of chemical substance/The level of expressed mRNA in the absence of chemical substance: 0.7
Yeast gene YPR194C
  The level of expressed mRNA in the presence of chemical substance/The level of expressed mRNA in the absence of chemical substance: 0.7
